This note sets out measurements from US20130217702A1 (Richter Gedeon Nyrt., priority 2010, published 2013).

Assay [1] concerns the target T1, recombinant human B1 receptors (Homo sapiens, UniProt P46663).
T1 construct: host or cells: CHO (CHO-B1)
T1 sequence (P46663 1-353): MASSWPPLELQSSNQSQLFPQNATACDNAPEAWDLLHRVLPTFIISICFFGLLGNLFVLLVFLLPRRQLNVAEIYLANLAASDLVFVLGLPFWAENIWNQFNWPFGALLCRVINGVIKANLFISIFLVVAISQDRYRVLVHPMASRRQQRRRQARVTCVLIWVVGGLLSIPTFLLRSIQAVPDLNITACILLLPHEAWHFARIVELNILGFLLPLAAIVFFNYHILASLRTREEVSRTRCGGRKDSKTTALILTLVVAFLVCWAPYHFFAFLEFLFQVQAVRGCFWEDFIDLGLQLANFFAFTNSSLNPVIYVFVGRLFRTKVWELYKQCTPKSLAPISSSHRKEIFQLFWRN
Nature of the assay: Functional assay: antagonist potency by cytosolic calcium measurement (plate reader fluorimeter) in CHO-B1 cells, agonist LysDABK. Format: cell-based. Particulars: CHO-B1 cells, inhibition of LysDABK (EC80)-evoked [Ca2+]i elevation; read-out: B1 func. On the procedure: Assessment of Antagonist Potency at B1 Receptors In Vitro by Measurement of Cytosolic Calcium Ion Concentration with a Plate Reader Fluorimeter in Cells Expressing Recombinant Human B1 Receptors
Chinese hamster ovary (CHO) cells stably expressing recombinant human B1 (CHO-B1, Euroscreen) receptors were cultured in Dulbecco's Modified Eagle's Medium (DMEM) containing 10% Fetal Calf Serum (FCS), 100 U/ml penicillin, 0.1 mg/ml streptomycin, 0.25 μg/ml amphotericin B, 1% Minimum Essential Medium Eagle (MEM), non essential amino acid solution, 600 μg/ml G418. Cells were kept at 37° C. in a humidified incubator in an atmosphere of 5% CO2/95% air and were passaged 1:4 three times a week. Cells were plated at 1.5−2.5×10^4 cell/well on standard 96-well microplates, measurements of cytosolic calcium ion concentration ([Ca^2+]i) were carried out 1-2 days after cell plating.
Measurements of [Ca^2+]i were carried out on CHO-B1 cells stably expressing human B1 receptors, respectively. Cells were grown in standard 96-well microplates and before the measurement were loaded with a fluorescent Ca^2+-sensitive dye, fluo-4/AM (2 μM): after removing the culture medium the dye was added to the cells (dissolved in assay buffer: 145 mM NaCl, 5 mM KCl, 2 mM MgCl2, 2 mM CaCl2, 10 mM HEPES, 20 mM D-glucose, 2 mM probenecid, 100 μl/well) and cells were incubated at 37° C. in a humidified incubator in an atmosphere of 5% CO2/95% air for 40-120 min. To stop dye loading cells were washed twice with assay buffer. After washing, various concentrations of the test compounds (diluted in extracellular medium from a DMSO stock solution, final DMSO concentration was <0.1%) or buffer were added to each well depending on the experimental setup. After incubation at 37° C. for 20-25 min. baseline and agonist-evoked changes of [Ca^2+]; were measured column by column with a plate reader fluorimeter (Fluoroskan Ascent, Labsystems). Excitation and detection of emission was carried out from the bottom of the plate. Filters used for Fluo-4: excitation filter 485 nm, emission filter 538 nm. The whole measurement process was performed at 37° C. and was controlled by custom software. Inhibitory potency of the test compounds was assessed by measuring the reduction in the agonist-evoked [Ca^2+]i-elevation in the presence of different concentrations of the compounds. The agonist was LysDABK for CHO-B1 cells. Agonist was applied at an EC80 concentration; the EC80-values were derived from daily determined dose-response curves. Fluorescence data were expressed as ΔF/F (fluorescence change normalized to baseline). All treatments on a single plate were measured in multiple wells. Data from all wells with the same treatment were averaged and the average values were used for analysis. Inhibitory potency of a compound at a single concentration point was expressed as percent inhibition of the control agonist response. Sigmoidal concentration-inhibition curves were fitted to the data (derived from at least three independent experiments) and IC50-values were determined as the concentration that produces half of the maximal inhibition caused by the compound.

Assay [2] deals with T2, human recombinant bradykinin B1 receptor (Homo sapiens, UniProt P46663).
T2 construct: host or cells: CHO cells, clone hB1-A5
T2 sequence (P46663 1-353): T1 sequence (P46663 1-353)
The assay is described as follows: Human recombinant bradykinin B1 receptor competitive radioligand binding. Particulars: hB1 expressed in CHO cells, [3H]-[Des-Arg10] Kallidin radioligand; read-out: B1 binding. On the procedure: Assessment of Ligand Binding Affinity to B1 and B2 Receptors In Vitro by Competitive Radioligand Binding Assay
Binding assays were carried out on human recombinant bradykinin) receptors (expressed in CHO cells, hB1-A5) according to the Euroscreen Technical Data Sheet (Cat.No.:ES-091). 20 μg protein/tube was incubated with [3,4-prolyl-3,4-^3H(N)]-[Des-Arg^10] Kallidin as radioligand. Non specific binding was determined in the presence of 10 μM Lys-des-Arg^9-Bradykinin. The final incubation volume was 250 μl. Samples were incubated for 15 min. at 25° C. then were rapidly vacuum filtered through GF/B filters presoaked for at least 1 h in 0.5% PEI. Radioactivity was determined by liquid scintillation spectroscopy.
The ligand displacement by the compounds was determined using a minimum of seven concentrations in triplicate, and experiments were repeated at least two times. The specific radioligand binding is defined as the difference between total binding and the non-specific binding determined in the presence of an excess of unlabelled ligand. Results are expressed as a percent inhibition of specific binding obtained in the presence of RGH-478 or reference drugs. IC50 values (i.e. concentration of compound giving 50% inhibition of specific binding) were calculated from concentration-displacement curves by sigmoidal fitting using GraphPad Prism Software 4.0. Ki values (i.e. inhibition constants) were calculated using the Cheng-Prusoff equation. KD was determined from the Scatchard plot. (Editor-in-chief: Enna, S. J. and Williams, M. Current protocols in pharmacology vol. 1. John Wiley & sons Inc., 1998)

Regarding `Cc1nc(-c2c(Cl)c3cc(Cl)ccc3n2-c2ccc(CNC(=O)C3(NC(=O)c4cncc(C(F)(F)F)c4)CC3)cc2)no1` [Example 76, N-(1-{4-[3,5-Dichloro-2-(5-methyl-[1,2,4]oxadiazol-3-yl)-indol-1-yl]-benzylcarbamoyl}-cyclopropyl)-5-trifluoromethyl-nicotinamide], the IC50 in assay [1] was < 20 nM. Moreover, the Ki in assay [2] was < 20 nM.

As to `Cn1nnc(-c2c(Cl)c3cc(F)ccc3n2-c2ccc(CNC(=O)C3(NC(=O)C(F)(F)F)CC3)cc2)n1` [Example 12, 1-(2,2,2-Trifluoro-acetylamino)-cyclopropanecarboxylic acid 4-[3-chloro-5-fluoro-2-(2-methyl-2H-tetrazol-5-yl)-indol-1-yl]-benzylamide], the IC50 in assay [1] is < 20 nM. The Ki in assay [2] is < 20 nM.

For `Cc1nc(-c2c(Cl)c3ccccc3n2-c2ccc(CNC(=O)C3(NC(=O)c4ccc(C(F)(F)F)c(F)c4)CC3)cc2)no1` [Example 93, N-(1-{4-[3-Chloro-2-(5-methyl-[1,2,4]oxadiazol-3-yl)-indol-1-yl]-benzylcarbamoyl}-cyclopropyl)-3-fluoro-4-trifluoromethyl-benzamide], the IC50 in assay [1] is 20 to 100 nM. Besides, the Ki in assay [2] was in the range of 20 to 100 nM.

For `COc1ccc2c(c1)c(Cl)c(-c1noc(C)n1)n2-c1ccc(CNC(=O)C2(NC(=O)c3cc(OC)no3)CC2)cc1` [Example 64, 3-Methoxy-isoxazole-5-carboxylic acid (1-{4-[3-chloro-5-methoxy-2-(5-methyl-[1,2,4]oxadiazol-3-yl)-indol-1-yl]-benzylcarbamoyl}-cyclopropyl)-amide], the IC50 in assay [1] is < 20 nM. Further, the Ki in assay [2] was < 20 nM.

With `Cc1nc(-c2c(Cl)c3cc(F)ccc3n2-c2ccc(CNC(=O)C3(NC(=O)c4cc(C5CC5)on4)CC3)cc2)no1` [Example 90, 5-Cyclopropyl-isoxazole-3-carboxylic acid (1-{4-[3-chloro-5-fluoro-2-(5-methyl-[1,2,4]oxadiazol-3-yl)-indol-1-yl]-benzylcarbamoyl}-cyclopropyl)-amide], the IC50 in assay [1] is < 20 nM. Further, the Ki in assay [2] was < 20 nM.

Consider `Cc1nc(-c2c(Cl)c3ccccc3n2-c2ccc(CNC(=O)C3(NC(=O)c4cccnc4C)CC3)cc2)no1` [Example 155, N-(1-{4-[3-Chloro-2-(5-methyl-[1,2,4]oxadiazol-3-yl)-indol-1-yl]-benzylcarbamoyl}-cyclopropyl)-2-methyl-nicotinamide], for which, in assay [1], the IC50 was 20 to 100 nM. The Ki in assay [2] was 20 to 100 nM.

`COc1cc(C(=O)NC2(C(=O)N[C@H](C)c3ccc(-n4c(-c5noc(C)n5)c(Cl)c5ccccc54)cc3F)CC2)on1` [Example 191, 3-Methoxy-isoxazole-5-carboxylic acid [1-((R)-1-{4-[3-chloro-2-(5-methyl-[1,2,4]oxadiazol-3-yl)-indol-1-yl]-2-fluoro-phenyl}-ethylcarbamoyl)-cyclopropyl]amide]: in assay [1], the IC50 was < 20 nM. Further, the Ki in assay [2] is < 20 nM.

Take `Cc1nc(-c2c(Cl)c3cc(F)ccc3n2-c2ccc(CNC(=O)C3(NC(=O)c4cncc(C(F)(F)F)c4)CC3)cc2)no1` [Example 91, N-(1-{4-[3-Chloro-5-fluoro-2-(5-methyl-[1,2,4]oxadiazol-3-yl)-indol-1-yl]-benzylcarbamoyl}-cyclopropyl)-5-trifluoromethyl-nicotinamide]: the IC50 in assay [1] was < 20 nM. For the same molecule, in assay [2], the Ki was < 20 nM.

Turning to `Cc1nc(-c2cc3ccccc3n2-c2ccc(CNC(=O)C3(NC(=O)c4cncc(C(F)(F)F)c4)CC3)cc2)no1` [Example 82, N-(1-{4-[2-(5-Methyl-[1,2,4]oxadiazol-3-yl)-indol-1-yl]-benzylcarbamoyl}-cyclopropyl)-5-trifluoromethyl-nicotinamide], the IC50 in assay [1] was < 20 nM. Moreover, in assay [2], the Ki was < 20 nM.

Regarding `COc1cc(C(=O)NC2(C(=O)NCc3ccc(-n4c(-c5nnn(C)n5)c(Cl)c5cc(F)ccc54)cc3F)CC2)on1` [Example 20, 3-Methoxy-isoxazole-5-carboxylic acid (1-{4-[3-chloro-5-fluoro-2-(2-methyl-2H-tetrazol-5-yl)-indol-1-yl]-2-fluoro-benzylcarbamoyl}-cyclopropyl)-amide], in assay [1], the IC50 was < 20 nM. Besides, the Ki in assay [2] is < 20 nM.

For the molecule `CSc1ccc(C(=O)NC2(C(=O)NCc3ccc(-n4c(-c5noc(C)n5)c(Cl)c5ccccc54)cc3)CC2)s1` [Example 173, 5-Methylsulfanyl-thiophene-2-carboxylic acid (1-{4-[3-chloro-2-(5-methyl-[1,2,4]oxadiazol-3-yl)-indol-1-yl]-benzylcarbamoyl}-cyclopropyl)-amide], the IC50 in assay [1] was 20 to 100 nM. For the same molecule, the Ki in assay [2] was < 20 nM.

In the case of `COc1cc(C(=O)NC2(C(=O)NCc3ccc(-n4c(C(N)=O)c(Cl)c5ccccc54)cc3)CC2)on1` [Example 188, 3-Chloro-1-{4-[({1-[(3-methoxy-isoxazole-5-carbonyl)-amino]-cyclopropane-carbonyl}-amino)-methyl]-phenyl}-1H-indole-2-carboxylic acid amide], the IC50 in assay [1] is < 20 nM. Also, the Ki in assay [2] lay within 20 to 100 nM.

On to `CCOC(=O)c1c(Cl)c2ccccc2n1-c1ccc(CNC(=O)C2(NC(=O)c3cc(OC)no3)CC2)cc1` [Example 34, 3-Chloro-1-{4-[({1-[(3-methoxy-isoxazole-5-carbonyl)-amino]-cyclopropane-carbonyl}-amino)-methyl]-phenyl}-1H-indole-2-carboxylic acid ethyl ester], for which the IC50 in assay [1] lay in the range of 20 to 100 nM. Further, the Ki in assay [2] was < 20 nM.

`Cc1nc(-c2c(Cl)c3ccccc3n2-c2ccc(CNC(=O)C3(NC(=O)c4ccno4)CC3)cc2)no1` [Example 134, Isoxazole-5-carboxylic acid (1-{4-[3-chloro-2-(5-methyl-[1,2,4]oxadiazol-3-yl)-indol-1-yl]-benzylcarbamoyl}-cyclopropyl)-amide]: the IC50 in assay [1] is < 20 nM. In assay [2], the Ki is < 20 nM.

Turning to `COc1cc(C(=O)NC2(C(=O)NCc3ccc(-n4c(-c5nnn(C)n5)c(Cl)c5cc(Cl)ccc54)cc3)CC2)on1` [Example 18, 3-Methoxy-isoxazole-5-carboxylic acid (1-{4-[3,5-dichloro-2-(2-methyl-2H-tetrazol-5-yl)-indol-1-yl]-benzylcarbamoyl}-cyclopropyl)-amide], the IC50 in assay [1] was < 20 nM. In addition, in assay [2], the Ki was < 20 nM.
